In patent publication US8366962B2, “Polymerizable liquid crystal compounds having oxiranyl group, polymerizable liquid crystal compositions and polymers” (JNC Corporation, priority 2009, dated 2013):

Assay: Solubility in PGMEA/MMP: deposition of crystals when the solution is allowed to stand at room temperature
Assay type: physicochemical
Details: 70/30 by weight mixture with compound (M1-19-1), 30% by weight solution in PGMEA/MMP=9/1 by volume
Text: Incidentally, PGMEA and MMP stand for propylene glycol […] ether acetate and methyl 3-methoxypropionate, respectively.

## Cc1cc(OC(=O)c2ccc(OCCCCOCC3(C)CO3)cc2)ccc1OC(=O)c1ccc(OCCCCOCC2(C)CO2)cc1 (stereo not shown) [Compound (1-1-14)]
  time allowed to stand without deposition of crystals: more than 3 days
